Reference: patent US20250049736A1, “SULFONAMIDE DERIVATIVES AND THEIR USE AS SOLUBLE EPOXIDE HYDROLASE INHIBITORS” (THE UNITED STATES OF AMERICA, AS REPRESENTED BY THE …, priority 2021, published 2025)

Tests used:
[1] = molecular target: human sEH (Homo sapiens (Human), UniProt P34913); experiment: Fluorescence-based sEH inhibitor screening assay (PHOME substrate); format: biochemical; details: dose-dependent fluorescence assay
Description: Fluorescence-based sEH inhibitor screening assay provided a convenient method for screening human epoxide hydrolase inhibitors. The assay utilized (3-phenyl-oxiranyl)-acetic acid cyano-(6-methoxy-naphthalen-2-yl)-methyl ester (PHOME) as substrate. […] The cyanohydrin quickly decomposed into cyanide ion and the highly fluorescent 6-methoxy-2-naphthaldehyde which was analyzed using an excitation wavelength of 330 nm and emission wavelength of 465 nm after a 30-minute reaction time in darkness.
The background AF was subtracted from the 100% initial activity and inhibitor AFs.

[2] = molecular target: inducible nitric oxide synthase (iNOS) (Mus musculus (Mouse), UniProt P29477); experiment: iNOS inhibition primary assay; format: biochemical; details: 10 μM of each compound; mouse cell line
Description: Biochemical assay results are presented as the percent inhibition of specific binding or activity. The concentration of each compound was 10 μM.

[3] = Metabolic stability, mouse; format: in vitro ADME
[4] = tested on: Plasma protein; experiment: Plasma protein binding, human; format: in vitro ADME
[5] = Metabolic stability, human; format: in vitro ADME
[6] = tested on: Plasma protein; experiment: Plasma protein binding, mouse; format: in vitro ADME
[7] = Aqueous solubility @ pH 7.4; format: physicochemical
[8] = tested on: Caco-2; experiment: Caco-2 permeability; format: in vitro ADME

Chain of human sEH (P34913 whole entry): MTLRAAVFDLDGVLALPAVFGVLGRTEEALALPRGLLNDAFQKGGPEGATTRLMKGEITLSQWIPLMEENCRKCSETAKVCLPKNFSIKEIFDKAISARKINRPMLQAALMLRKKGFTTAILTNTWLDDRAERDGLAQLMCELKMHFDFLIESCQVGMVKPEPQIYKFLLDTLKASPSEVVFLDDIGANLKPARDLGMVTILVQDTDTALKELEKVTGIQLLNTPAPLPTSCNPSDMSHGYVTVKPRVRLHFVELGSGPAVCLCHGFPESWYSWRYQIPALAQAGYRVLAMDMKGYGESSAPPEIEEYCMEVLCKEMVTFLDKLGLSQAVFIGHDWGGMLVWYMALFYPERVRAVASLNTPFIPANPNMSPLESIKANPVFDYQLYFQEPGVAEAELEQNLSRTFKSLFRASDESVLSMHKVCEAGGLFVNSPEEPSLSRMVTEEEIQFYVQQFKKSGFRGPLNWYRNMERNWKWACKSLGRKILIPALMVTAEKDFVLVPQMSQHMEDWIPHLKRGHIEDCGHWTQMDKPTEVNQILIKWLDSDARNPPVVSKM

For `O=S(=O)(NC(=S)NC12CC3CC(CC(C3)C1)C2)c1ccc(OC(F)(F)F)cc1` [Compound 11d, N-(((3s,5s,7s)-adamantan-1-yl)carbamothioyl)-4-(trifluoromethoxy)benzenesulfonamide], which IC50 [1] is on record?
The IC50 was 4.66 nM.

Which IC50 [1] does the source give for `NN/C(=N/S(=O)(=O)c1ccc(OC(F)(F)F)cc1)NC12CC3CC(CC(C3)C1)C2` [Compound 13i] here?
The IC50 was 154 nM.

For `C[Se]C(=N)NC(=NS(=O)(=O)c1ccc(C(F)(F)F)cc1)NC12CC3CC(CC(C3)C1)C2` [Compound 9j, methyl N—N′-((3s,5s,7s)-adamantan-1-yl)-N′-((4-(trifluoromethyl)phenyl)sulfonyl)carbamimidoyl)carbamimidoselenoate], which “% iNOS inhibition” value [2] is on record?
The value was 90%.

Which results are given for `C[Se]/C(N)=N/C(=NS(=O)(=O)c1ccc(OC(F)(F)F)cc1)NC12CC3CC(CC(C3)C1)C2` [Compound 9i]?
IC50 [1]: 3.84 nM; % iNOS inhibition [2]: 87%

With `C/C(N)=N\C(=N\S(=O)(=O)c1ccc(OC(F)(F)F)cc1)NC12CC3CC(CC(C3)C1)C2` [Compound 7i] as the compound, how does the IC50 [1] read?
The IC50 was 9.89 nM.

For `O=S(=O)(NC(=S)NC12CC3CC(CC(C3)C1)C2)c1ccccc1` [Compound 11c, N-(((3s,5s,7s)-adamantan-1-yl)carbamothioyl)benzenesulfonamide], which IC50 [1] is on record?
The IC50 was 131 nM.

For `CS/C(N)=N/C(=NS(=O)(=O)c1ccc(OC(F)(F)F)cc1)NC12CC3CC(CC(C3)C1)C2` [Compound 8i], which IC50 [1] is on record?
The IC50 was 1.02 nM.

What does the source list for `O=C(NC12CC3CC(CC(C3)C1)C2)NS(=O)(=O)c1ccc2ccccc2c1` [Compound 5e]?
Metabolic stability Half life [3]: 2.2 min; Metabolic stability % remaining after 1 h [3]: 0%; IC50 [1]: 1.21 nM; Plasma protein binding % of stability [4]: 99%; Metabolic stability Half life [5]: 33.4 min; Metabolic stability % remaining after 1 h [5]: 45%; Plasma protein binding % of bound comp [6]: 98%; Plasma protein binding % of stability [6]: 88%

Which “% iNOS inhibition” value [2] does the source give for `CSC(=N)NC(=NS(=O)(=O)c1ccc(C(C)(C)C)cc1)NC12CC3CC(CC(C3)C1)C2` [Compound 8b, methyl N—N′-((3s,5s,7s)-adamantan-1-yl)-N′-((4-(tert-butyl)phenyl)sulfonyl)carbamimidoyl)carbamimidothioate] here?
The value was 52%.

Which “Metabolic stability Half life” value [3] does the source give for `O=C(NC12CC3CC(CC(C3)C1)C2)NS(=O)(=O)c1ccc(OC(F)(F)F)cc1` [Compound 5i, N-(((3s,5s,7s)-adamantan-1-yl)carbamoyl)-4-(trifluoromethoxy)benzenesulfonamide] here?
Its value is 4.9 min.

And the “Metabolic stability % remaining after 1 h” value [3]?
The value was 0%.

And the “Aqueous Solubility @ pH 7.4” value [7]?
The value was 53 μg/mL.

What about the IC50 [1] of the same compound?
The IC50 was 1.69 nM.

What about the “Plasma protein binding % of stability” value [4] of the same compound?
Its value is 99%.

What about the Efflux ratio ([8]; Caco-2) of the same compound?
Its Efflux ratio is 0.8.

What about the “Caco-2 permeability Aical to Basal (Papp)” value ([8]; apical to basal) of the same compound?
Its value is 14.9 cm/sec (10^−6).

And the “Caco-2 permeability Basal to Apical (Papp)” value ([8]; basal to apical)?
Its value is 12.6 cm/sec (10^−6).

And the “Metabolic stability Half life” value [5]?
The value was 106.3 min.

And the “Metabolic stability % remaining after 1 h” value [5]?
Its value is 80%.

What about the “Plasma protein binding % of bound comp” value [6] of the same compound?
Its value is 98%.

With `COc1ccc(S(=O)(=O)/N=C(\N=C(/N)[Se]C)NC23CC4CC(CC(C4)C2)C3)cc1` [Compound 9c] as the compound, how does the “% iNOS inhibition” value [2] read?
Its value is 94%.

For `C[Se]C(=N)NC(=NS(=O)(=O)c1ccc(C(C)(C)C)cc1)NC12CC3CC(CC(C3)C1)C2` [Compound 9b, methyl N—N′-((3s,5s,7s)-adamantan-1-yl)-N′-((4-(tert-butyl)phenyl)sulfonyl)carbamimidoyl)carbamimidoselenoate], which “% iNOS inhibition” value [2] is on record?
The value was 95%.

Which IC50 [1] does the source give for `O=C(NC12CC3CC(CC(C3)C1)C2)NS(=O)(=O)c1ccccc1` [Compound 5d, N-(((3s,5s,7s)-adamantan-1-yl)carbamoyl)benzenesulfonamide] here?
Its IC50 is 104 nM.

With `C[Se]C(=N)NC(=NS(=O)(=O)c1ccc(C#N)cc1)NC12CC3CC(CC(C3)C1)C2` [Compound 9h, methyl N—N′-((3s,5s,7s)-adamantan-1-yl)-N′-((4-cyanophenyl)-sulfonyl)carbamimidoyl)carbamimidoselenoate] as the compound, how does the “% iNOS inhibition” value [2] read?
The value was 93%.
